# Test results published in patent US10369130B2, “Antibacterial compounds” (AZIENDE CHIMICHE RIUNITE ANGELINI FRANCESCO A.C.R.A.F. …, priority 2014, dated 2019).
# Counter-ions that a name gives are not always drawn.
# Experiments:
# Assay type in all cases: biochemical
# Conditions in all cases: single concentration (200, 100 or 50 μM), in duplicate, versus the positive control (vehicle)
# DNA gyrase [1] = biological target: T1, DNA gyrase (Escherichia coli, UniProt P0AES4+P0AES6); experiment: DNA gyrase supercoiling assay (E. coli)
# T1 construct: purchased Inspiralis, UK
# T1 sequence (P0AES4 whole entry, one chain of several): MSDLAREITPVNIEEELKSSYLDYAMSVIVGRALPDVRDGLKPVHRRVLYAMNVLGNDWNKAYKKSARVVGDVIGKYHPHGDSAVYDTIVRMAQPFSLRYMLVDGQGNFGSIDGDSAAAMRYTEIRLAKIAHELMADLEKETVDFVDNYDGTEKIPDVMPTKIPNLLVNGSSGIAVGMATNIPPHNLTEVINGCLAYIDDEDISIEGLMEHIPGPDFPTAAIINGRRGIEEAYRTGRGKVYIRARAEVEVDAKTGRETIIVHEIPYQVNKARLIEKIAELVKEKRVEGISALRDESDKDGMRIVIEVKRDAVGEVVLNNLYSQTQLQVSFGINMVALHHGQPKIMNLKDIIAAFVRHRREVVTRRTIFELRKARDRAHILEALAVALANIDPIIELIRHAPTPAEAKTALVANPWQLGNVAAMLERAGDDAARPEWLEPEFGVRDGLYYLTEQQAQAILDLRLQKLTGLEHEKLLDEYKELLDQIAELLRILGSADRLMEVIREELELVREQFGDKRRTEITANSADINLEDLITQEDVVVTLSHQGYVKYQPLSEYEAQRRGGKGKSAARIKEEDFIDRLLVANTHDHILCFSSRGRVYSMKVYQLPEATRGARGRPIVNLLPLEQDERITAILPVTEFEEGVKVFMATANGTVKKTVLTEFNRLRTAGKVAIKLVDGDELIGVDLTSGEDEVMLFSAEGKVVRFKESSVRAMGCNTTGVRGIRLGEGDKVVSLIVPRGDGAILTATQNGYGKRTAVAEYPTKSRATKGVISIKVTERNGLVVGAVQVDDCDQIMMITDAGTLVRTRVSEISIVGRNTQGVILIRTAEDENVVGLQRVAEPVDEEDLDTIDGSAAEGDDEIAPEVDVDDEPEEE
# Protocol: (§1) The above compounds were tested for the inhibition of the enzyme DNA gyrase in a gyrase supercoiling assay and for the inhibition of the enzyme topoisomerase IV in a decatenation assay, in both Gram positive and Gram negative bacteria, according to the following methods.
# (§2) Both the assays were carried out according to a set-up method modified from the article to Blanche F, et al. “Differential Behaviors of Staphylococcus aureus and Escherichia coli Type II DNA Topoisomerases”, Antimicrob.
# (§3) The compounds were screened at single concentration (200, 100 or 50 μM), in duplicate.
# (§4) Ciprofloxacin and novobiocin were used as reference compounds, at single concentration of 200 and 50 μM, respectively.
# (§5) DNA Gyrase Supercoiling Assay.
# (§6) Reagents from S. aureus and E. coli Gyrase Supercoiling Assay kits (Inspiralis, UK) were used. A master mix with a total volume sufficient for the number of reactions to perform was prepared with the following reagents: 5× assay buffer, relaxed pBR322 substrate (0.5 μg/reaction), RNase-DNase free water. Aliquotes of this mix were dispensed in each tube, then 10× compound stock solutions or vehicle control (DMSO), were added to each reaction tube.
# (§7) Reaction was started with E. Coli (2 U/reaction) or S. aureus (1 U/reaction) gyrase enzyme addition.
# (§8) A sample added with an equal volume of dilution buffer was used as negative control (without enzyme).
# (§9) The reaction tubes were gentle vortexed and incubated 30 minutes at 37° C. Each reaction was stopped by adding 30 μl of Stop Buffer and 30 μl chloroform/isoamyl alcohol (24/1), briefly vortexed for 5-10 seconds and centrifuged at 20000×g for 2 minutes. Samples were loaded onto 1% agarose gel and subjected to electrophoresis for 1 hour at 80V constant voltage in TAE (40 mM Tris-acetate, 2 mM EDTA).
# (§10) Data acquisition and analysis. Treatment of relaxed pBR322 with DNA gyrase converted the relaxed topoisomers (DNAs of different linking number) to the supercoiled form of the plasmid, which migrates faster on an agarose gel. An upper band might also be visible, which consists of open-circular (nicked) DNA which is present in the relaxed substrate but co-migrates with some of the relaxed topoisomers.
# (§11) Bands were visualized by ethidium bromide staining (dil 1:20000) for 30 minutes followed by destaining in distilled water for 10 minutes.
# (§12) In order to evaluate the compounds activity on the enzyme, the bands of supercoiled DNAs in the gel were photographed by a digital imaging system ImageQuant LAS 4000 (GE Healthcare) according to manufacturer's instructions.
# (§13) The fluorescent intensity of each band was analysed by ImageQuant TL software and it was expressed as volume (volume of the uncalibrated quantity of material in the image feature after subtraction of the background intensity by using rolling ball method).
# (§14) Each band intensity was compared, as percentage, to vehicle sample band intensity, which served as positive control, on the same gel.
# (§15) Inhibitory activity was expressed as percent of inhibition versus the positive control.
# DNA gyrase [2] = biological target: T2, DNA gyrase (Staphylococcus aureus, UniProt P0A0K8+P20831); experiment: DNA gyrase supercoiling assay (S. aureus)
# T2 construct: purchased Inspiralis, UK
# Protocol: as §1, §2, §3, §4, §5, §6, §7, §8, §9, §10, §11, §12, §13, §14, §15
# Topoisomerase IV [3] = biological target: T3, Topoisomerase IV (Escherichia coli, UniProt P0AFI2+P20083); experiment: Topoisomerase IV decatenation assay (E. coli)
# T3 construct: purchased Inspiralis, UK
# T3 sequence (P20083 whole entry): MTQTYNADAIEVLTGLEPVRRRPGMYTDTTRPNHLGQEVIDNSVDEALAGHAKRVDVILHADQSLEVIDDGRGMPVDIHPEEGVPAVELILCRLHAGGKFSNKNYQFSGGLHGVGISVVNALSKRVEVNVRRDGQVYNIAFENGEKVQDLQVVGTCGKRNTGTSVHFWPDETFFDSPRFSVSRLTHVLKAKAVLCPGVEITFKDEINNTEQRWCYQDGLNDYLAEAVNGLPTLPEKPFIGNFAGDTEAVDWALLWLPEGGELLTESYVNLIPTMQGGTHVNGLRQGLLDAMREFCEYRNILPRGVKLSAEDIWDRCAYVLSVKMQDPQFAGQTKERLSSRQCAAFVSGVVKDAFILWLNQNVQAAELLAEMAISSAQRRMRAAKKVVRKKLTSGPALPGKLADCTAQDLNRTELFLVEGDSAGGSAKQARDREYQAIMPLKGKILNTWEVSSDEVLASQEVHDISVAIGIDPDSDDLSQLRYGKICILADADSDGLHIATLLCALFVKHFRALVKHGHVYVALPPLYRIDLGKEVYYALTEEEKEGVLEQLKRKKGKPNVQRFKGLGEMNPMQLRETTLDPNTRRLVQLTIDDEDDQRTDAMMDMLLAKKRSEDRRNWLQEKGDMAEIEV
# T3 sequence (P0AFI2 whole entry): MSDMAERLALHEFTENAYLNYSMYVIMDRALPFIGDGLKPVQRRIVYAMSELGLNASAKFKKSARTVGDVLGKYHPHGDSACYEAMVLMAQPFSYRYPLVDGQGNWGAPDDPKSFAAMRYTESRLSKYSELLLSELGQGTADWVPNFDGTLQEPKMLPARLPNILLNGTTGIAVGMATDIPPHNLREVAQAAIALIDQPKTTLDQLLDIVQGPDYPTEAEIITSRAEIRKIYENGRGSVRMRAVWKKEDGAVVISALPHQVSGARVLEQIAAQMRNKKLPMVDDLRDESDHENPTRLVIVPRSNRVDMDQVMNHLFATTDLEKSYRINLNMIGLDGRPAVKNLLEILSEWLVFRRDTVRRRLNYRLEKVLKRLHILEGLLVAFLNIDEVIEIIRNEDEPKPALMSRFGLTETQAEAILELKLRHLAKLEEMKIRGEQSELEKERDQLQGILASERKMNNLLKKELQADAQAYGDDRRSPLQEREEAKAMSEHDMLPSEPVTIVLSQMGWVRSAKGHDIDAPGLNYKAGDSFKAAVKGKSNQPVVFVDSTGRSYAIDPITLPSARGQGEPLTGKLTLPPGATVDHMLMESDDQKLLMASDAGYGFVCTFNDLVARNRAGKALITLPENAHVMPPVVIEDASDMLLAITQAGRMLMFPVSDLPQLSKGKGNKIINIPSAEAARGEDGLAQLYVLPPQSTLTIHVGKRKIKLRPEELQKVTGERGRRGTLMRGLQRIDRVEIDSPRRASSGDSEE
# Protocol: as §1, §2, §3, §4
# (§16) Topoisomerase IV Decatenation Assay
# (§17) S. aureus and E. coli Topoisomerase IV decatenation kits (Inspiralis, UK) were used. A master mix with a total volume sufficient for the number of reactions to perform was prepared with the following reagents: 5× assay buffer (50 mM HEPES-KOH (pH 7.6), 100 mM potassium glutamate, 10 mM magnesium acetate, 10 mM DTT, 1 mM ATP, 50 μg/ml albumin), kDNA substrate (200 ng/reaction), RNase-DNase free water. Aliquots of this mix were dispensed in each tube, then 10× compound stock solutions or vehicle control (DMSO), were added in each reaction tube.
# (§18) Reaction was started with Topoisomerase IV enzyme (0.5 U/reaction) addition.
# as §8
# (§19) The reaction tubes were gentle vortexed and incubated 30 minutes at 37° C. Each reaction was stopped by adding 30 μl of Stop Buffer and 30 μl of chloroform/isoamyl alcohol (24/1), briefly vortexed for 5-10 seconds and centrifuged at 20000×g for 2 minutes. Samples taken from the upper phase were loaded into 1% agarose gel and subjected to electrophoresis for 1 hour at 80V constant voltage in TAE (40 mM Tris-acetate, 2 mM EDTA).
# (§20) Data acquisition and analysis. Due to the high molecular mass, kDNA could not enter an agarose gel under normal electrophoresis conditions, but remained in the wells. In the presence of Topo IV topoisomerase mini-circles (2.5 Kb) were released from kDNA by decatenation and were quickly and easily resolved in the gel at relatively high voltages.
# as §11
# (§21) For single concentration screening assay, in order to evaluate the compounds activity on the enzymes, the bands of decatenated DNAs in the gel were photographed by a digital imaging system ImageQuant LAS 4000 (GE Healthcare) according to manufacturer's instructions.
# (§22) The fluorescent intensity of each band was analyzed by ImageQuant TL software and it was expressed as volume (volume of the uncalibrated quantity of material in the image feature after subtraction of the background intensity by using rolling ball method).
# as §14, §15
# Topoisomerase IV [4] = biological target: T4, Topoisomerase IV (Staphylococcus aureus, UniProt P0C1S7+P0C1U9); experiment: Topoisomerase IV decatenation assay (S. aureus)
# T4 construct: purchased Inspiralis, UK
# T4 sequence (P0C1S7 whole entry): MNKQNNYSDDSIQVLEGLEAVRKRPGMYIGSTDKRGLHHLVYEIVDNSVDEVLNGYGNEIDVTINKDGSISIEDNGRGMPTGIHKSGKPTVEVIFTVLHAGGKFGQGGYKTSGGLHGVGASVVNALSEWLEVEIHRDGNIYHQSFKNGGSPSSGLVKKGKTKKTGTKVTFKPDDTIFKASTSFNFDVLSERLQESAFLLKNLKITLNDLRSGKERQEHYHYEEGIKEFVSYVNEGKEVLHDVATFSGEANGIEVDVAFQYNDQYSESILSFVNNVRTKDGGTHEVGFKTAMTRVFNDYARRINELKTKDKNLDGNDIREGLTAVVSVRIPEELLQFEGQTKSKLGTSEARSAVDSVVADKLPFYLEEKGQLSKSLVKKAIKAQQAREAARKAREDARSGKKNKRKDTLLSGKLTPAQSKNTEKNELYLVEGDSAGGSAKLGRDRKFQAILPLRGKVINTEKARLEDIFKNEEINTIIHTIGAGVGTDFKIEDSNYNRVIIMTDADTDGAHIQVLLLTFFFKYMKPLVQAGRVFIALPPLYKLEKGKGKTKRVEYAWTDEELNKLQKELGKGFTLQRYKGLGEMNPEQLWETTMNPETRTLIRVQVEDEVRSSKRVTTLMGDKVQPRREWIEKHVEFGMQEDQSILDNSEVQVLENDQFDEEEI
# T4 sequence (P0C1U9 whole entry): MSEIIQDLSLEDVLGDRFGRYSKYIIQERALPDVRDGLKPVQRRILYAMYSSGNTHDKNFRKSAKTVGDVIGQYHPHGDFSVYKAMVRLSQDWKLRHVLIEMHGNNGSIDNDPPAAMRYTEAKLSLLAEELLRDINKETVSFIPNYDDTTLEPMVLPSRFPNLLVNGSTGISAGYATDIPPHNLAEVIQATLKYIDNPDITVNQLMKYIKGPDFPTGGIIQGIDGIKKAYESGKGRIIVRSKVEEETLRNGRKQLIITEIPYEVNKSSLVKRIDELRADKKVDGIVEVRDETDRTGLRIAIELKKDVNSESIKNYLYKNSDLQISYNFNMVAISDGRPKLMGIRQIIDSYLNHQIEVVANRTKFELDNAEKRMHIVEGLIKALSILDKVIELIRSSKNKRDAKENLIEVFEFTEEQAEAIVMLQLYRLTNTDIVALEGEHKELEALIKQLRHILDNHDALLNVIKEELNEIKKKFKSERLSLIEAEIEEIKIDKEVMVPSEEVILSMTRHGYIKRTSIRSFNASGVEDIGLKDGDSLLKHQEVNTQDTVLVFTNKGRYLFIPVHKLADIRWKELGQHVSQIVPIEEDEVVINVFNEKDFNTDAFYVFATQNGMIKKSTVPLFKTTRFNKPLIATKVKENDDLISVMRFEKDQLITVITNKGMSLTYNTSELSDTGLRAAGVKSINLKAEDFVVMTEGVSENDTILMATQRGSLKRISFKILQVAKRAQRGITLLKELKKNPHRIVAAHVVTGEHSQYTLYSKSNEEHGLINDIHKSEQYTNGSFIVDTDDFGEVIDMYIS
# Protocol: as §1, §2, §3, §4, §16, §17, §18, §8, §19, §20, §11, §21, §22, §14, §15
Structure (SMILES),% inhibition DNA gyrase (DNA gyrase [1]),% inhibition DNA gyrase (DNA gyrase [2]),% inhibition Topo IV (Topoisomerase IV [3]),% inhibition Topo IV (Topoisomerase IV [4])
"O=C(NCCCN1CCN(c2nccc3ccccc23)CC1)c1ccccc1 [Compound 3, N-{3-[4-(isoquinolin-1-yl)piperazin-1-yl]propyl}benzamide hydrochloride]",59%,n/a (n/a = not active),n/a (n/a = not active),n/a (n/a = not active)
"c1ccc2c(N3CCN(CCNCc4ccc5c(c4)OCO5)CC3)nccc2c1 [Compound 130, N-(1,3-benzodioxol-5-ylmethyl)-2-[4-(isoquinolin-1-yl)piperazin-1-yl]ethanamine]",n/a (n/a = not active),74%,n/a (n/a = not active),
"O=c1cc(NC[C@@H](O)[C@@H](O)C2CCN(c3nccc4ccc(F)cc34)CC2)c2ccccc2o1 (racemic) [Compound 129, (2R,3S) and (2S,3R) 4-({3-[1-(7-fluoroisoquinolin-1-yl)piperidin-4-yl]-2,3-dihydroxypropyl}amino)-2H-chromen-2-one hydrochloride]",69%,n/a (n/a = not active),n/a (n/a = not active),n/a (n/a = not active)
"COC(=O)C1CN(c2nccc3ccccc23)CCN1CCCNc1cc(=O)oc2ccccc12 (stereo not drawn) [Compound 81, methyl 4-(isoquinolin-1-yl)-1-{3-[(2-oxo-2H-chromen-4-yl)amino]propyl}piperazine-2-carboxylate hydrochloride]",80%,n/a (n/a = not active),n/a (n/a = not active),n/a (n/a = not active)
"O=C(CC(NCCNC1CCN(c2nccc3ccc(F)cc23)CC1)C1CCCCC1)NO (stereo not drawn) [Compound 191, 3-cyclohexyl-3-[(2-{[1-(7-fluoroisoquinolin-1-yl)piperidin-4-yl]amino}ethyl)amino]-N-hydroxypropanamide]",n/a (n/a = not active),81%,n/a (n/a = not active),
"O=C(O)[C@@H](NC[C@@H](O)CN1CCN(c2nccc3ccc(F)cc23)CC1)C1CCCCC1 [Compound 140, (2S)-cyclohexyl({(2R)-3-[4-(7-fluoroisoquinolin-1-yl)piperazin-1-yl]-2-hydroxypropyl}amino)acetic acid]",68%,92%,n/a (n/a = not active),
"O=C(O)[C@@H](NC[C@H](O)CN1CCN(c2nccc3ccc(F)cc23)CC1)C1CCCCC1 [Compound 138, (2S)-cyclohexyl({(2S)-3-[4-(7-fluoroisoquinolin-1-yl)piperazin-1-yl]-2-hydroxypropyl}amino)acetic acid]",n/a (n/a = not active),89%,n/a (n/a = not active),
"OCCC(NCCNC1CCN(c2nccc3ccc(F)cc23)CC1)C1CCCCC1 (stereo not drawn) [Compound 167, 3-cyclohexyl-3-[(2-{[1-(7-fluoroisoquinolin-1-yl)piperidin-4-yl]amino}ethyl)amino]propan-1-ol]",n/a (n/a = not active),70%,n/a (n/a = not active),
"O=C(O)[C@H](NC[C@@H](O)CN1CCN(c2nccc3ccc(F)cc23)CC1)C1CCCCC1 [Compound 139, (2R)-cyclohexyl({(2R)-3-[4-(7-fluoroisoquinolin-1-yl)piperazin-1-yl]-2-hydroxypropyl}amino)acetic acid]",n/a (n/a = not active),54%,n/a (n/a = not active),
"O=C(O)CC(NC[C@@H](O)CN1CCN(c2nccc3ccc(F)cc23)CC1)C1CCCCC1 (stereo partly drawn) [Compound 136, 3-cyclohexyl-3-({(2R)-3-[4-(7-fluoroisoquinolin-1-yl)piperazin-1-yl]-2-hydroxypropyl}amino)propanoic acid]",57%,75%,n/a (n/a = not active),
"c1ccc2c(N3CCN(CCCNCc4ccc5c(c4)OCO5)CC3)nccc2c1 [Compound 120, N-(1,3-benzodioxol-5-ylmethyl)-3-[4-(isoquinolin-1-yl)piperazin-1-yl]propan-1-amine]",n/a (n/a = not active),76%,n/a (n/a = not active),
"c1ccc2sc(CNCCCN3CCN(c4nccc5ccccc45)CC3)cc2c1 [Compound 119, N-(1-benzothiophen-2-ylmethyl)-3-[4-(isoquinolin-1-yl)piperazin-1-yl]propan-1-amine]",n/a (n/a = not active),60%,n/a (n/a = not active),
"O=c1cc(NCCCN2CCN(c3nccc4ccccc34)CC2)c2ccccc2[nH]1 [Compound 58, 4,4-({3-[4-(isoquinolin-1-yl)piperazin-1-yl]propyl}amino)quinolin-2(1H)-one hydrochloride]",100%,n/a (n/a = not active),n/a (n/a = not active),
"O=C(O)CC(NC[C@H](O)CN1CCN(c2nccc3ccc(F)cc23)CC1)C1CCCCC1 (stereo partly drawn) [Compound 137, 3-cyclohexyl-3-({(2S)-3-[4-(7-fluoroisoquinolin-1-yl)piperazin-1-yl]-2-hydroxypropyl}amino)propanoic acid]",57%,75%,n/a (n/a = not active),
"O=C(CN1CCC(Nc2cc(=O)oc3ccccc23)CC1)Nc1nccc2ccccc12 [Compound 117, N-(isoquinolin-1-yl)-2-{4-[(2-oxo-2H-chromen-4-yl)amino]piperidin-1-yl}acetamide]",75%,n/a (n/a = not active),n/a (n/a = not active),
"COC(=O)CC(NCCNC1CCN(c2nccc3ccc(F)cc23)CC1)C1CCCCC1 (stereo not drawn) [Compound 189, methyl 3-cyclohexyl-3-[(2-{[1-(7-fluoroisoquinolin-1-yl)piperidin-4-yl]amino}ethyl)amino]propanoate]",n/a (n/a = not active),84%,n/a (n/a = not active),
